Assay results published in paper PMC7760315 (Biomolecules, 2020).
Where “and” joins values, the source holds several entries; their conditions need not be identical. Equal values may be shown once. Read-outs that look alike come from different tables or passages of the source.

Columns and labels:
[1] = target: T1, GlyRα1 (Homo sapiens, UniProt P23415); experiment: Two-electrode voltage clamp, Xenopus laevis oocytes expressing GlyRα1 alone; format: cell-based
T1 construct: expressed in transfected cells; host or cells: Xenopus laevis oocytes (cRNA injection)
T1 sequence (P23415 29-457): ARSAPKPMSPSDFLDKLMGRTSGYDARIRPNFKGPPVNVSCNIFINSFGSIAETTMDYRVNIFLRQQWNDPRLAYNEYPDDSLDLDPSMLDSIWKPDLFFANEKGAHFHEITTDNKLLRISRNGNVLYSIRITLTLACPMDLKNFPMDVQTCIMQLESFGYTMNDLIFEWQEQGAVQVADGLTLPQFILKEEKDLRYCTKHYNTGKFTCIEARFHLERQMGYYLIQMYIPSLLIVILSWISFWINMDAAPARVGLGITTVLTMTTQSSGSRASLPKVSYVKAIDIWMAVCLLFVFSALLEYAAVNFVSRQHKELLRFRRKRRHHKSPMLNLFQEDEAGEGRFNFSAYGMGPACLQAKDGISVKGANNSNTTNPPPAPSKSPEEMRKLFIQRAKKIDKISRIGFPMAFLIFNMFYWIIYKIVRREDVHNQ
Description: (§1) Human GlyT1b and GlyT2a WT cDNA were subcloned into the plasmid oocyte transcription vector (pOTV) and human GlyRα1, GlyRα3 and GlyRβ into pGEMHE. GlyR cDNA pGEMHE vectors were provided by Mary Collins at the University of Sydney (Sydney, Australia). Single point mutations were introduced into GlyRα1 using the Q5 site-directed mutagenesis kit (New England Biolabs (Genesearch), Arundel, Australia) with oligonucleotide primers (Merck, Sydney, Australia) containing the desired mutations. The amplified cDNA/pOTV or cDNA/pGEMHE product was then transformed in E. coli cells, and subsequently purified using the PureLink Quick Plasmid Miniprep Kit (Invitrogen by Life Technologies, Löhne, Germany), and sequenced by the Australian Genome Research Facility (Sydney, Australia). The purified plasmid DNA was linearised via the restriction enzyme, SpeI (New England Biolabs (Genesearch), Arundel, Australia) for GlyT1b and GlyT2a (henceforth referred to as GlyT1 and GlyT2 respectively) and NheI (New England Biolabs (Genesearch)) for GlyRα1, GlyRα3 and GlyRβ. Complementary RNAs were synthesised using the mMESAGE mMACHINE T7 kit (Ambion, Austin, TX, USA).
(§2) All work involving the use of animals was performed in accordance with the Australian Code of Practice for the Care and Use of Animals for Scientific Purposes and approved by the University of Sydney Animal Ethics Committee (Approval numbers 2016/970 and 2020/1704). […] The oocytes were then stored in frog Ringer’s solution (96 mM NaCl, 2 mM KCl, 1 mM MgCl2, 1.8 mM CaCl2, 5 mM HEPES, pH 7.5) which was supplemented with 2.5 mM sodium pyruvate, 0.5 mM theophylline, 50 μg/mL gentamicin and […] tetracycline. The oocytes were stored at 18 °C for 3–5 days, until transporter and receptor expression were adequate for measurement using the two-electrode voltage clamp technique.
(§3) GlyT1, GlyT2, GlyRα1, GlyRα3, GlyRα1β and GlyRα3β are electrogenic, allowing activation to be measured via the two-electrode voltage clamp technique. Oocytes were voltage clamped at −60 mV, and whole-cell currents generated by the substrate were recorded with a Geneclamp 500 amplifier (Axon Instruments, Foster City, CA, USA), digitised by a Powerlab 2/20 chart recorder (ADInstruments, Sydney, Australia). LabChart version 8 software (ADInstruments, Sydney, Australia) was used to visualise and process current traces. Recordings were performed in frog Ringer’s solution, except for low Na^+ experiments where Na^+ was replaced with choline. Oocytes were placed in an oval-shaped bath with a volume of 0.3 mL, with laminar flow around the oocyte at a rate of 12 mL min^−1 under gravity feed.
(§4) Varying concentrations of substrate or agonist were applied to cells in ND96.
(§5) Flow of the solution was stopped until the current plateaued, by manually closing a three-way valve on one end of the bath such that the solution in the bath was static and is referred to henceforth as ‘stop-flow’.

[2] = system: GlyRα1/GlyT2; experiment: Two-electrode voltage clamp, oocytes co-expressing GlyRα1/GlyT2; format: cell-based, human
Description: as §1, §2, §3
(§6) Varying concentrations of substrate or agonist were applied to cells in ND96. […]

[3] = target: GlyRα3 (Homo sapiens, UniProt O75311); conditions: read-out: Fast-Flow Glycine EC50
GlyRα3, sequence (O75311 34-464): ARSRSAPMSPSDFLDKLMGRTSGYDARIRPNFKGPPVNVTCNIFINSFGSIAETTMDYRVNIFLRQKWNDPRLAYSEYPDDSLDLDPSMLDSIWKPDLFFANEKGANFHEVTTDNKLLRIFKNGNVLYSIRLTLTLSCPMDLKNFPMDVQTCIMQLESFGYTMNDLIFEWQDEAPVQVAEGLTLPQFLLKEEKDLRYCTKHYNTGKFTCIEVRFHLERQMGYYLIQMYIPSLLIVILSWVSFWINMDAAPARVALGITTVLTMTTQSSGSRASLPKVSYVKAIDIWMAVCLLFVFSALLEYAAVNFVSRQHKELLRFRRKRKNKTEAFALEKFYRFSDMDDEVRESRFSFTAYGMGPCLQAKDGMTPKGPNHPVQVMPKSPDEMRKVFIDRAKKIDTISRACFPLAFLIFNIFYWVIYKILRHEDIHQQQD
Description: as §1, §2, §3, §4

[4] = target: GlyRα3/GlyT1 (Homo sapiens, UniProt O75311); conditions: read-out: Fast-Flow Glycine EC50
GlyRα3/GlyT1, sequence (O75311 34-464): as above
Description: as §1, §2, §3, §4

[5] = target: GlyRα3/GlyT2 (Homo sapiens, UniProt O75311); conditions: read-out: Fast-Flow Glycine EC50
GlyRα3/GlyT2, sequence (O75311 34-464): as above
Description: as §1, §2, §3, §4

[6] = target: GlyT1 (Homo sapiens, UniProt P48067); conditions: read-out: glycine EC50 (transport current); GlyT1 expressed alone
Description: as §1, §2, §3, §4

[7] = target: GlyT2 (Homo sapiens, UniProt Q9Y345); conditions: read-out: glycine EC50 (transport current); GlyT2 expressed alone
GlyT2 (Homo sapiens, UniProt Q9Y345), sequence (Q9Y345 whole entry): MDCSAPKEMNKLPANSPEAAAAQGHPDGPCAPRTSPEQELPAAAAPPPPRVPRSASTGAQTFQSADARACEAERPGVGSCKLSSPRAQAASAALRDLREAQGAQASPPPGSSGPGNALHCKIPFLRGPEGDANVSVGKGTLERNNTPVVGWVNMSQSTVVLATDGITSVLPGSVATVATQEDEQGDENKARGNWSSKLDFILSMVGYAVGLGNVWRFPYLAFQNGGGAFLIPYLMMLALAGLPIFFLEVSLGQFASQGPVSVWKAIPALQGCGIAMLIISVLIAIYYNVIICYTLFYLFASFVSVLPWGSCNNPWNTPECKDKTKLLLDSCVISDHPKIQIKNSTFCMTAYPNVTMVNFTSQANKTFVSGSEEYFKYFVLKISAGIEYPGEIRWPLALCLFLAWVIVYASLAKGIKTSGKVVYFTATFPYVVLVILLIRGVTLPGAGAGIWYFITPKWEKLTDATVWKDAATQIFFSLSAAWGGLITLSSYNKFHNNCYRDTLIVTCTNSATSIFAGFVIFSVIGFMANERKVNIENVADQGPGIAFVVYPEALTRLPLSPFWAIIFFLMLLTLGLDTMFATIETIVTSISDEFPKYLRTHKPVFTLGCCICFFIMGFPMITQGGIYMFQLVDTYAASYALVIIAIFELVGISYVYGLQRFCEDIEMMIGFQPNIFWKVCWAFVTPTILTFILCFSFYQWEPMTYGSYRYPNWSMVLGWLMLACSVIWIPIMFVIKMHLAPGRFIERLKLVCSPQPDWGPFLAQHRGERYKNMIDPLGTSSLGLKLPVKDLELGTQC
Description: as §1, §2, §3, §4

[8] = target: GlyRα3β/GlyT1 (Homo sapiens, UniProt O75311+P48167); conditions: read-out: Fast-Flow Glycine EC50
GlyRα3β/GlyT1, sequence (O75311 34-464): as the sequence (O75311 34-464) above
GlyRα3β/GlyT1, sequence (P48167 23-497): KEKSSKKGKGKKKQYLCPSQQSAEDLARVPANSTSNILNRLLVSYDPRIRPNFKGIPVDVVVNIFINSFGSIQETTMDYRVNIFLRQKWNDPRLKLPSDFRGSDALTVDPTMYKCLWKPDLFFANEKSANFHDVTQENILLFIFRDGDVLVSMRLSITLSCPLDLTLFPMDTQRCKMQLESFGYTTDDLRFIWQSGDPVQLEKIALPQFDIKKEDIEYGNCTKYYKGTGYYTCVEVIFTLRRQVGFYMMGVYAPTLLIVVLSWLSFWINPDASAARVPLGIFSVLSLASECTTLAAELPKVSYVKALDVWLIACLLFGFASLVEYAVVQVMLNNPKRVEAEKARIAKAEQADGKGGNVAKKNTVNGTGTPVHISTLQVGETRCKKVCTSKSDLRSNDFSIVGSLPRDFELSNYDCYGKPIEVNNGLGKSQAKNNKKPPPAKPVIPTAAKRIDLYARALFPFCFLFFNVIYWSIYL
Description: (§7) Human GlyT1b and GlyT2a WT cDNA were subcloned into the plasmid oocyte transcription vector (pOTV) and human GlyRα1, GlyRα3 and GlyRβ into pGEMHE. […] Single point mutations were introduced into GlyRα1 using the Q5 site-directed mutagenesis kit (New England Biolabs (Genesearch), Arundel, Australia) with oligonucleotide primers (Merck, Sydney, Australia) containing the desired mutations. […] The purified plasmid DNA was linearised via the restriction enzyme, SpeI (New England Biolabs (Genesearch), Arundel, Australia) for GlyT1b and GlyT2a (henceforth referred to as GlyT1 and GlyT2 respectively) and NheI (New England Biolabs (Genesearch)) for GlyRα1, GlyRα3 and GlyRβ. Complementary RNAs were synthesised using the mMESAGE mMACHINE T7 kit (Ambion, Austin, TX, USA). […]
(§8) GlyT1, GlyT2, GlyRα1, GlyRα3, GlyRα1β and GlyRα3β are electrogenic, allowing activation to be measured via the two-electrode voltage clamp technique. Oocytes were voltage clamped at −60 mV, and whole-cell currents generated by the substrate were recorded with a Geneclamp 500 amplifier (Axon Instruments, Foster City, CA, USA), digitised by a Powerlab 2/20 chart recorder (ADInstruments, Sydney, Australia). […]

[9] = target: GlyRα3β/GlyT2 (Homo sapiens, UniProt O75311+P48167); conditions: read-out: Fast-Flow Glycine EC50
GlyRα3β/GlyT2, sequence (O75311 34-464): as the sequence (O75311 34-464) above
GlyRα3β/GlyT2, sequence (P48167 23-497): as the sequence (P48167 23-497) above
Description: as §7, §8

[10] = system: GlyRα1-mCherry; conditions: read-out: Glycine EC50; tagged receptor alone
Description: (§9) The oocytes were then stored in frog Ringer’s solution (96 mM NaCl, 2 mM KCl, 1 mM MgCl2, 1.8 mM CaCl2, 5 mM HEPES, pH 7.5) which was supplemented with 2.5 mM sodium pyruvate, 0.5 mM theophylline, 50 μg/mL gentamicin and 100 μM mL^−1 tetracycline. The oocytes were stored at 18 °C for 3–5 days, until transporter and receptor expression were adequate for measurement using the two-electrode voltage clamp technique.

[11] = system: GlyT2-GFP; conditions: read-out: Glycine EC50; tagged transporter alone
Description: as §9

[12] = system: GlyRα1; conditions: cited from earlier work
[13] = system: GlyT2; conditions: cited from earlier work
[14] = system: GlyRα1; conditions: % stimulation of glycine EC5 caused by 1 µM lipid; cited from earlier work
[15] = target: T2, GlyRα1/GlyT1 (Homo sapiens, UniProt P23415); experiment: Two-electrode voltage clamp, oocytes co-expressing GlyRα1/GlyT1; format: cell-based
T2 construct: expressed in transfected cells; host or cells: Xenopus laevis oocytes (cRNA co-injection)
T2 sequence (P23415 29-457): T1 sequence (P23415 29-457)
Description: as §1, §2, §3, §4, §5

[16] = target: T3, GlyRα1/GlyT1 (Homo sapiens, UniProt P48067); experiment: as above; format: cell-based; conditions: 1 μM ALX-5407; 1 mM Na+ buffer
T3 construct: expressed in transfected cells; host or cells: Xenopus laevis oocytes (cRNA co-injection)
T3 sequence (P48067 1-652 isoform P48067-3): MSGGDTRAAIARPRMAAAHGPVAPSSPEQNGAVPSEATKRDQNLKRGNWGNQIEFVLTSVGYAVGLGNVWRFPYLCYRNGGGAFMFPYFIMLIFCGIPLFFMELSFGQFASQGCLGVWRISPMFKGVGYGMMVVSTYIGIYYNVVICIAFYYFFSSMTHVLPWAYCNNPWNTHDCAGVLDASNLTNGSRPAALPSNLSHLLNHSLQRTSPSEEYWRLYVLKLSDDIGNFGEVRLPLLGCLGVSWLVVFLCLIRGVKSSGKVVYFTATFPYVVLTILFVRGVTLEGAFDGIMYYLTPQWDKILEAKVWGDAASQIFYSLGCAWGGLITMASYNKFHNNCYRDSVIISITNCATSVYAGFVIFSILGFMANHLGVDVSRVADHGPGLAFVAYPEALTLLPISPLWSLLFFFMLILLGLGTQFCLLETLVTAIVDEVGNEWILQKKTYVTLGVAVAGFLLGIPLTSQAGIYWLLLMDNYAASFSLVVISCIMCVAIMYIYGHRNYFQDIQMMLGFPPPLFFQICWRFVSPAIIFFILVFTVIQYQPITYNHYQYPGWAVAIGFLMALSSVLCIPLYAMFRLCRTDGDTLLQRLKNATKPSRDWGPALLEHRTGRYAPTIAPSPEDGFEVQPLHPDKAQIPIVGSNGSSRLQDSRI
Description: as §1, §2, §3, §4, §5

[17] = system: GlyT1; conditions: cited from earlier work
[18] = target: GlyRα1/GlyT2 (Homo sapiens, UniProt P23415); experiment: Two-electrode voltage clamp, oocytes co-expressing GlyRα1/GlyT2; format: cell-based
GlyRα1/GlyT2 (Homo sapiens, UniProt P23415), sequence (Q9Y345 whole entry partner, one chain of several): as the sequence (Q9Y345 whole entry) above
Description: as §1, §2, §3, §6

[19] = non-transportable GlyR agonist, read-out: β-alanine EC50

**Q.** Which results are given for `NCC(=O)O` [glycine]?
**A.** Peak Current [1]: 740.6 ± 105.9 nA; EC50 ([2]; read-out: Fast-Flow Glycine EC50): 30.9 µM and 41.6 µM and 34.1 µM and 27.9 µM and 27.3 µM; EC50 ([2]; read-out: Glycine EC50): 23 µM; EC50 ([2]; read-out: Stop-Flow Glycine EC50): 83.1 µM; EC50 [3]: 64.8 µM; EC50 [4]: 154 µM; EC50 [5]: 160 µM; EC50 [6]: ~35 µM; EC50 [7]: 21.8 µM and ~30 µM; EC50 [8]: 220 µM; EC50 [9]: 224 µM; EC50 [10]: 15.7 µM; EC50 [11]: 28.1 µM; EC50 ([12]; read-out: glycine EC50, ref 51): 24 µM; EC50 ([12]; read-out: glycine EC50, ref 52): 42 µM; EC50 ([12]; read-out: glycine EC50 values in oocytes, variable with maximal current): 20 to 280 µM

**Q.** Which results are given for `CCCCCCCCC=CCCCCCCCC(=O)NC(CCSC)C(=O)O` [C18-cis-ω9-L-methionine]?
**A.** nH of glycine dose-response in the presence of lipid ([1]; 1 µM lipid, fast-flow): 2.2 ± 0.3 ns; GlyT2 Activity: % Inhibition (1 µM) ([13]; 1 µM lipid, inhibition of glycine transport): 84.9 ± 0.07%; IC50 ([13]; inhibition of glycine transport by GlyT2): 29.2 nM; GlyT2 Activity: Max inhibition (%) ([13]; maximal level of inhibition observed): 91.2%; GlyRα1 Potentiation at EC5 (%) [14]: 2.2 ± 4.2% and 2.2 ± 4.2 (6) %

**Q.** Which “nH of glycine dose-response in the presence of GlyT inhibitor” value ([15]; 1 µM inhibitor, fast-flow) does the source give for `CN(CC[C@@H](Oc1ccc(-c2ccccc2)cc1)c1ccc(F)cc1)CC(=O)O` [ALX-5407] here?
**A.** 2.0 ± 0.2 ns

**Q.** And the “stopped flow increase in current amplitude (reverse glycine transport / efflux)” value [16]?
**A.** prevents

**Q.** What about the IC50 [17] of the same compound?
**A.** 3 nM

**Q.** With `NCCC(=O)O` [β-alanine] as the compound, how does the EC50 [1, 19] read?
**A.** 28.3 µM

**Q.** What about the EC50 [15, 19] of the same compound?
**A.** 28 µM

**Q.** What about the EC50 [18] of the same compound?
**A.** 27.4 µM
